Reference: patent publication US20060084577A1, “Formulation and application of Indole-Derivatives for avoiding fruit and vegetable cracking” (priority 2004, published 2006)

Tested on: sweet cherries, 'Schneiders' variety
Assay: Field trial of cracking of sweet cherries after application of Tryptophane on cherry trees
Type: in vivo, Prunus avium L.
Details: for Number of Damaged Fruits / Percentage of Damaged Fruits: 20 and 29 Jun. 2002, 300 cherries sampled at harvest, evaluated Jul. 7, 2002 after heavy rainfall
Procedure: The following Experiments describe the results of field trials, showing the reducing effect on the cracking of cherries by applying Tryptophane on cherry trees. The influence of the application of the anti-cracking formulation of the present invention on cracking of sweet cherries, was tested on the commercially available ‘Schneiders’ variety of sweet cherry in Belgium during the 2002 growing season. The plant density was approximately 1,646 stems per acre (666 stems/hectare or “ha”). Two different amounts of Tryptophane were applied on the cherry tries and compared with an untreated control. • Experiment 1: Control Group (No treatment with the anti-cracking formulation.) • Experiment 2: 0.0223 lb/acre (25 g/ha) Tryptophane, on 20 Jun. 2002, and 0.0223 lb/acre (25 g/ha) Tryptophane, on 29 Jun. 2002. • Experiment 3: 0.0446 lb/acre (50 g/ha) Tryptophane, on 20 Jun. 2002, and 0.0446 lb/acre (50 g/ha) Tryptophane, on 29 Jun. 2002.
On Jun. 20, 2002, the plants of Experiment 1 and Experiment 2, as listed above, were treated in the evening, under sunny conditions, 71.6° F. (22° C.), and little wind. The cherries began to ripen. On Jun. 29, 2002, the plants of Experiment 1 and Experiment 2 were again treated in the evening, at sunny growth conditions, under slightly cloudy skies, 68° F. (20° C.), and moderate wind. The ripening of the cherries was fully underway.
An evaluation of the cherries in the above Experiments were made on Jul. 7, 2002, after heavy rainfall. For the Experiment's Results, as listed in TABLE 1, below, 300 cherries were randomly sampled at harvest, from which the number of intact and damaged cherries was determined.

[1] = 2* 0.0223 lb/acre (25 g/ha) Tryptophane
[2] = 2*0.0446 lb/acre (50 g/ha) Tryptophane

N[C@@H](Cc1c[nH]c2ccccc12)C(=O)O [Tryptophane]
Number of Damaged Fruits [1]: 78
Percentage of Damaged Fruits [1]: 26%
Number of Damaged Fruits [2]: 42
Percentage of Damaged Fruits [2]: 14%
reduction of the damage to the cherries (double application of 0.0446 lbs per acre (50 g per hectare), versus untreated control): approximately 50%
